The values below come from ChEMBL document CHEMBL4411299, “A class of novel tubulin polymerization inhibitors exert effective anti-tumor activity via mitotic catastrophe” (Eur J Med Chem, 2019).

The GI50 is the concentration at which growth is held to half of that of the control. Lower therefore signals more potent growth inhibition.

Assay type in all cases: functional
The subject of one assay is A2780. Put plainly: Antiproliferative activity against human A2780 cells after 48 hrs by MTT assay. The following applies: A2780, 48 h. (Tetrazolium dyes change colour on reduction, which living cells bring about.)
In the next assay the test system is HT-29. The experiment in a line: Antiproliferative activity against human HT-29 cells after 48 hrs by MTT assay. The following applies: HT-29, 48 h.
The next assay concerns HeLa. The experiment in a line: Antiproliferative activity against human HeLa cells after 48 hrs by MTT assay.
The test system of a further assay is MDA-MB-231. The experiment in a line: Antiproliferative activity against human MDA-MB-231 cells after 48 hrs by MTT assay. The following applies: MDA-MB-231, 48 h.
For another assay, the system named is HepG2. The experiment in a line: Antiproliferative activity against human HepG2 cells after 48 hrs by MTT assay. The following applies: HepG2, 48 h.
For another assay, the system named is A549. The experiment in a line: Antiproliferative activity against human A549 cells after 48 hrs by MTT assay. The following applies: A549, 48 h.

For the compound `COc1cccc(C2=NN(C(=O)OCc3ccccc3)C(c3cc(OC)c(OC)c(OC)c3)C2)c1` (stereo not drawn), the GI50 with A2780, with HT-29, in the assay on HeLa, with MDA-MB-231, with HepG2 and with A549 was greater than 10 µM each time.
With `CCOC(=O)N1N=C(c2cccc(OC)c2)CC1c1cc(OC)c(OC)c(OC)c1` (stereo not drawn), the GI50 with A2780 was 7.3 µM; in the assay on HT-29 it was 7.86 µM; in the assay on HeLa, 4.11 µM; with MDA-MB-231 it was 9.1 µM; with HepG2, 5.82 µM; in the assay with A549 it was 5.92 µM.
As for `COC(=O)N1N=C(c2ccccc2)CC1c1ccc(OC)c(OC)c1` (stereo not drawn), the 50% growth inhibitory concentration (GI50) in the assay on A2780 is 29.9 µM; in the assay with HT-29, 10.7 µM; in the assay on HeLa, 5.48 µM; with MDA-MB-231, 8.94 µM; in the assay on HepG2 it was 9.15 µM; with A549, 7.32 µM.
Turning to `COC(=O)N1N=C(c2ccccc2)CC1c1c(OC)cc(OC)cc1OC` (stereo not drawn), the GI50 in the assay with A2780 was greater than 10 µM; in the assay on HT-29 it was greater than 10 µM; in the assay on HeLa it was 3.49 µM; in the assay on MDA-MB-231, 10.6 µM; with HepG2, 7.49 µM; in the assay on A549, 5.88 µM.
Regarding `CCOC(=O)N1N=C(c2ccc(OC)cc2)CC1c1cc(OC)c(OC)c(OC)c1` (stereo not drawn), the 50% growth inhibitory concentration (GI50) in the assay with A2780 stood at 9.27 µM; with HT-29, 6.73 µM; in the assay with HeLa, 8.71 µM; with MDA-MB-231, 2.66 µM; in the assay on HepG2, 9.4 µM; with A549, 4.69 µM.
Take `COC(=O)N1N=C(c2cccc(OC)c2)CC1c1cc(OC)c(OC)c(OC)c1` (stereo not drawn): the GI50 in the assay with A2780 was determined as 2.78 µM; in the assay on HT-29, 1.3 µM; in the assay with HeLa, 1.53 µM; with MDA-MB-231 it was 0.35 µM; in the assay on HepG2, 1.87 µM; with A549, 2.59 µM.
For the compound `COC(=O)N1N=C(c2ccccc2)CC1c1ccccc1` (stereo not drawn), the GI50 with A2780, in the assay with HT-29, with HeLa, with MDA-MB-231, in the assay with HepG2 and in the assay with A549 was greater than 10 µM throughout.
For the compound `COC(=O)N1N=C(c2ccccc2)CC1c1ccc(OC)cc1` (stereo not drawn), the GI50 in the assay on A2780 is greater than 10 µM; in the assay with HT-29, greater than 10 µM; with HeLa it was 12.7 µM; in the assay with MDA-MB-231 it was greater than 10 µM; in the assay on HepG2, 12 µM; in the assay on A549, 15.3 µM.
`CCCOC(=O)N1N=C(c2cccc(OC)c2)CC1c1cc(OC)c(OC)c(OC)c1` (stereo not drawn): the concentration for 50% growth inhibition (GI50) is greater than 10 µM with A2780; greater than 10 µM in the assay on HT-29; greater than 10 µM in the assay with HeLa; 12.5 µM in the assay with MDA-MB-231; greater than 10 µM in the assay with HepG2; greater than 10 µM in the assay with A549.
Take `CCOC(=O)N1N=C(c2cccc(O)c2)CC1c1cc(OC)c(OC)c(OC)c1` (stereo not drawn): the GI50 with A2780 is 9.75 µM; in the assay with HT-29, 11.6 µM; in the assay with HeLa it was 3.28 µM; in the assay on MDA-MB-231 it was 4.71 µM; in the assay on HepG2, 1.79 µM; in the assay with A549, 5.12 µM.
Take `COC(=O)N1N=C(c2ccc(OC)cc2)CC1c1cc(OC)c(OC)c(OC)c1` (stereo not drawn): the 50% growth inhibitory concentration (GI50) with A2780 turned out to be 5 µM; with HT-29, 2.55 µM; in the assay with HeLa, 2.59 µM; in the assay on MDA-MB-231, 1.99 µM; in the assay on HepG2, 1.71 µM; in the assay on A549 it was 3.4 µM.
Turning to `CCCOC(=O)N1N=C(c2ccccc2)CC1c1cc(OC)c(OC)c(OC)c1` (stereo not drawn), the 50% growth inhibitory concentration (GI50) was 10.8 µM with A2780; greater than 10 µM in the assay with HT-29; greater than 10 µM with HeLa; 14.4 µM in the assay with MDA-MB-231; greater than 10 µM in the assay with HepG2; greater than 10 µM in the assay with A549.
Consider `CCOC(=O)N1N=C(c2ccccc2)CC1c1cc(OC)c(OC)c(OC)c1` (stereo not drawn), for which the concentration for 50% growth inhibition (GI50) with A2780 is 6.72 µM; in the assay on HT-29, 8.92 µM; in the assay on HeLa, 8.23 µM; in the assay with MDA-MB-231 it was 5.61 µM; in the assay with HepG2, 5.95 µM; with A549, 6.68 µM.
